Experimental findings from US6384225B1, “Intermediates in the preparation of substituted chroman derivatives” (AstraZeneca AB, priority 1997, dated 2002) are described below.

By melting point is commonly meant the temperature, or range, at which the solid turns liquid. Turning to `Cc1ccc(C(=O)N[C@@H]2COc3c(C)ccc(N4CCN(C)CC4)c3C2)cc1` [Example 11, (S)-N-[8-Methyl-5-(4-methylpiperazin-1-yl)-3,4-dihydro-2H-1-benzopyran-3-yl]-4-methylbenzamide], the melting point lay within 191 to 192 °C. With `CN1CCN(c2ccc(C(N)=O)c3c2C[C@H](NC(=O)c2ccc(C(=O)c4ccccc4)cc2)CO3)CC1` [Example 14, (S)-N-[8-Carbamoyl-5-(4-methylpiperazin-1-yl)-3,4-dihydro-2H-1-benzopyran-3-yl]-4-benzoylbenzamide], the melting point was 259 °C (dec.). In turn, `COc1ccc(N2CCN(C)CC2)c2c1OCC(C(=O)Nc1ccc(N3CCOCC3)cc1)C2` (stereo not drawn) [Example 20, N-(4-Morpholinophenyl)-8-methoxy-5-(4-methylpiperazin-1-yl)-3,4-dihydro-2H-1-benzopyran-3-carboxamide] came in with a melting point of 202 to 204 °C.
